System: Plasmodium berghei
Assay: Luciferase/luciferin-expressing antifolate-resistant parasites were used to infect a culture of HepG2 cells that were pre-incubated with compounds. Infected hepatocytes emit light due to the luciferase reaction. Assay results are presented as the percent inhibition of light emission compared to control. […]
Format: functional
Conditions: sporozoite; for IC90: read-out: LUCIFERASE INFECTION ASSAY - IC90

Structure (SMILES) | IC90 | further results
CC(C)Cc1nc2oc3c(NCC4CCCO4)ncnc3c2c2c1CCC2 (stereo not given) | 4.52 µM | IC50 (PBLUC_HILL_SLOPE 12.2, PBLUC_R_SQUARED 0.0912, read-out: LUCIFERASE INFECTION ASSAY - IC50): 3.77 µM
Cc1ccc(/C=C/c2ccc3ccccc3[n+]2C)cc1 | > 8.52 µM | IC50 (PBLUC_HILL_SLOPE 12.2, PBLUC_R_SQUARED 0.0729, read-out: LUCIFERASE INFECTION ASSAY - IC50): 8.36 µM
CN(C)CCNC(=O)c1ccc(-c2cc(-c3cc(F)c(F)c(F)c3)cnc2N)cc1 | > 7.96 µM | IC50 (PBLUC_HILL_SLOPE 12.1, PBLUC_R_SQUARED 0.329, read-out: LUCIFERASE INFECTION ASSAY - IC50): 7.43 µM
CC(C)(C)NCC(O)CON=C1c2ccccc2-c2ccccc21 (stereo not given) | > 10 µM | IC50 (PBLUC_HILL_SLOPE 12, PBLUC_R_SQUARED 0.408, read-out: LUCIFERASE INFECTION ASSAY - IC50): 9.17 µM
Cc1nc(N2CCN(C(=O)C(C)C)CC2)c2c3c(sc2n1)CC(C)CC3 (stereo not given) | > 10 µM | IC50 (PBLUC_HILL_SLOPE 12.1, PBLUC_R_SQUARED 0.479, read-out: LUCIFERASE INFECTION ASSAY - IC50): 9.05 µM
CCc1ccccc1NC(=O)C(C)SCc1ccccc1 (stereo not given) | > 11 µM | IC50 (PBLUC_HILL_SLOPE 11.9, PBLUC_R_SQUARED 0.654, read-out: LUCIFERASE INFECTION ASSAY - IC50): 9.84 µM
CC(C)S(=O)(=O)c1cscc1NC(=O)c1ccc(-c2cc(C(F)(F)F)nn2C)s1 | > 7.12 µM | IC50 (PBLUC_HILL_SLOPE 12.2, PBLUC_R_SQUARED 0.329, read-out: LUCIFERASE INFECTION ASSAY - IC50): 6.55 µM
CN(C)CCNC(=O)c1ccc(-c2cn3c(-c4ccc5c(c4)OCO5)cnc3cn2)cc1 | > 7.68 µM | IC50 (PBLUC_HILL_SLOPE 12, PBLUC_R_SQUARED 0.209, read-out: LUCIFERASE INFECTION ASSAY - IC50): > 7.68 µM
O=C(Nc1nc2ccccc2[nH]1)C1CCN(c2ncc(C(F)(F)F)cc2Cl)CC1 | 3.95 µM | IC50 (PBLUC_HILL_SLOPE 12.1, PBLUC_R_SQUARED 0.351, read-out: LUCIFERASE INFECTION ASSAY - IC50): 3.29 µM
CSc1ncc(C(=O)N2CCN(c3ccnc4cc(Cl)ccc34)CC2)n1-c1ccc(F)cc1 | 9.72 µM | IC50 (PBLUC_HILL_SLOPE 12.3, PBLUC_R_SQUARED 0.334, read-out: LUCIFERASE INFECTION ASSAY - IC50): 8.13 µM
Cc1cccc(NC(=O)CN2CCN(C(=O)c3csc(-c4ccc(C(C)C)cc4)n3)CC2)c1C | 3.81 µM | IC50 (PBLUC_HILL_SLOPE 12.3, PBLUC_R_SQUARED 0.609, read-out: LUCIFERASE INFECTION ASSAY - IC50): 3.19 µM
CNc1snc(C)c1C(=O)N(C)Cc1ccccc1OC(F)(F)F | 0.463 µM | IC50 (PBLUC_HILL_SLOPE 12.1, PBLUC_R_SQUARED 0.631, read-out: LUCIFERASE INFECTION ASSAY - IC50): 0.386 µM
c1ccc(CNc2nn3c(-c4ccccc4)cnc3s2)cc1 | 4.14 µM | IC50 (PBLUC_HILL_SLOPE 12.3, PBLUC_R_SQUARED 0.487, read-out: LUCIFERASE INFECTION ASSAY - IC50): 3.47 µM
O=C(Nc1ccc(Cl)cc1)Nc1cc(-c2cc(-c3ccccc3)c(C(F)(F)F)s2)n[nH]1 | > 7.13 µM | IC50 (PBLUC_HILL_SLOPE 12.1, PBLUC_R_SQUARED 0.235, read-out: LUCIFERASE INFECTION ASSAY - IC50): 6.86 µM
O=C(COC(=O)C1(c2ccccc2F)CCCC1)NC1CCCCCCC1 | > 10 µM | IC50 (PBLUC_HILL_SLOPE 12.1, PBLUC_R_SQUARED 0.29, read-out: LUCIFERASE INFECTION ASSAY - IC50): > 10 µM
CN(C)C(CNc1ncnc2sc(-c3ccccc3)cc12)c1ccco1 (stereo not given) | > 10 µM | IC50 (PBLUC_HILL_SLOPE 12.3, PBLUC_R_SQUARED 0.199, read-out: LUCIFERASE INFECTION ASSAY - IC50): 9.76 µM
N#Cc1nncn1Cc1csc(-c2cccs2)n1 | 9.56 µM | IC50 (PBLUC_HILL_SLOPE 12.1, PBLUC_R_SQUARED 0.315, read-out: LUCIFERASE INFECTION ASSAY - IC50): 7.97 µM
CCOC(=O)c1cc(OC)c2cccc(CN3CCCCCC3(C)C(=O)NCC(C)C)c2c1 (stereo not given) | > 7.26 µM | IC50 (PBLUC_HILL_SLOPE 12.1, PBLUC_R_SQUARED 0.495, read-out: LUCIFERASE INFECTION ASSAY - IC50): 6.85 µM
O=C(/C(=N/Nc1ccc(OC(F)(F)F)cc1)C(=O)C(F)(F)F)c1cccs1 | > 8.04 µM | IC50 (PBLUC_HILL_SLOPE 12.2, PBLUC_R_SQUARED 0.21, read-out: LUCIFERASE INFECTION ASSAY - IC50): 7.58 µM
CC(C)(C)c1ccccc1NC(=O)Nc1nc(C(N)CCc2ccccc2)cs1 (stereo not given) | 8 µM | IC50 (PBLUC_HILL_SLOPE 12.3, PBLUC_R_SQUARED 0.125, read-out: LUCIFERASE INFECTION ASSAY - IC50): 6.69 µM

Structure (SMILES) | IC90 | further results
Cc1ccccc1-n1c(SCC(=O)NC2CCCCC2)nc(O)cc1=O | 3.36 µM | IC50 (PBLUC_HILL_SLOPE 12.2, PBLUC_R_SQUARED 0.38, read-out: LUCIFERASE INFECTION ASSAY - IC50): 2.81 µM
Oc1ccc(Br)cc1/C=N/c1cc(C(F)(F)F)ccc1NCCc1ccccc1 | > 7.12 µM | IC50 (PBLUC_HILL_SLOPE 12.2, PBLUC_R_SQUARED 0.511, read-out: LUCIFERASE INFECTION ASSAY - IC50): > 7.12 µM
COc1ccc(-c2cnc3cnc(-c4ccsc4)cn23)cn1 | 9.71 µM | IC50 (PBLUC_HILL_SLOPE 12.3, PBLUC_R_SQUARED 0.383, read-out: LUCIFERASE INFECTION ASSAY - IC50): 8.12 µM
c1ccc(-c2cc3c(SCc4cscn4)ncnc3s2)cc1 | 3.71 µM | IC50 (PBLUC_HILL_SLOPE 12.2, PBLUC_R_SQUARED 0.61, read-out: LUCIFERASE INFECTION ASSAY - IC50): 3.1 µM
CC(C)n1ncc2cc(NC(=O)C3=Cc4ccccc4OC3)cnc21 | > 10 µM | IC50 (PBLUC_HILL_SLOPE 12, PBLUC_R_SQUARED 0.534, read-out: LUCIFERASE INFECTION ASSAY - IC50): 9.28 µM
O=C(NC(=O)c1ccc(F)c(Cl)c1)Nc1nnc(C(F)(F)F)s1 | > 8.95 µM | IC50 (PBLUC_HILL_SLOPE 12, PBLUC_R_SQUARED 0.227, read-out: LUCIFERASE INFECTION ASSAY - IC50): 8.64 µM
CCCCNC(=O)c1c(NC(=O)c2ccc(C(=O)OC)cc2)nc2ccccn12 | > 8.37 µM | IC50 (PBLUC_HILL_SLOPE 12.3, PBLUC_R_SQUARED 0.245, read-out: LUCIFERASE INFECTION ASSAY - IC50): 7.76 µM
NC(CCc1ccccc1)c1csc(NC(=O)Nc2ccccc2-c2ccccc2)n1 (stereo not given) | 7.05 µM | IC50 (PBLUC_HILL_SLOPE 12.2, PBLUC_R_SQUARED 0.388, read-out: LUCIFERASE INFECTION ASSAY - IC50): 5.88 µM
CN(C)CCCNc1nc(-c2cccs2)nc2sc3c(c12)CCCC3 | 4.04 µM | IC50 (PBLUC_HILL_SLOPE 12.2, PBLUC_R_SQUARED 0.29, read-out: LUCIFERASE INFECTION ASSAY - IC50): 3.37 µM
CCOC(=O)c1oc2ccccc2c1COC(=O)c1ccc(C)c(NC(=O)c2ccco2)c1 | 7.27 µM | IC50 (PBLUC_HILL_SLOPE 12.1, 4.42, PBLUC_R_SQUARED 0.718, 0.471, read-out: LUCIFERASE INFECTION ASSAY - IC50): 6.8 µM
COc1ccc(Nc2nc(N)nc(CSc3nc4ccccc4o3)n2)cc1 | 3.53 µM | IC50 (PBLUC_HILL_SLOPE 12.3, PBLUC_R_SQUARED 0.778, read-out: LUCIFERASE INFECTION ASSAY - IC50): 2.95 µM
CC(=O)Nc1ccc(-c2cnc3ccc(Cc4ccc(F)cc4)nn23)cc1 | 1.41 µM | IC50 (PBLUC_HILL_SLOPE 11.9, PBLUC_R_SQUARED 0.515, read-out: LUCIFERASE INFECTION ASSAY - IC50): 1.17 µM
Cc1nn(-c2ccccc2)c2nc(-c3cccs3)cc(C(=O)Nc3cc(Cl)ccc3N3CCN(C)CC3)c12 | 9.44 µM | IC50 (PBLUC_HILL_SLOPE 12, PBLUC_R_SQUARED 0.52, read-out: LUCIFERASE INFECTION ASSAY - IC50): 7.85 µM
CCN1CCN(c2ccc(Cl)cc2NC(=O)c2sc(-c3ccccc3)nc2C)CC1 | 4.23 µM | IC50 (PBLUC_HILL_SLOPE 12.2, PBLUC_R_SQUARED 0.286, read-out: LUCIFERASE INFECTION ASSAY - IC50): 3.53 µM
Cc1ccc(NC(=O)c2cnn(-c3cccc(Cl)c3)c2C(C)C)nc1 | 4.3 µM | IC50 (PBLUC_HILL_SLOPE 12, PBLUC_R_SQUARED 0.586, read-out: LUCIFERASE INFECTION ASSAY - IC50): 3.58 µM
CC(NC(=O)Nc1ccc(C#N)cc1)c1ccc2ccccc2c1 (stereo not given) | > 10 µM | IC50 (PBLUC_HILL_SLOPE 12.1, PBLUC_R_SQUARED 0.463, read-out: LUCIFERASE INFECTION ASSAY - IC50): 9.4 µM
O=C(Nc1nccs1)C1CCCNC1 (stereo not given) | > 10 µM | IC50 (PBLUC_HILL_SLOPE 12.1, PBLUC_R_SQUARED 0.548, read-out: LUCIFERASE INFECTION ASSAY - IC50): 8.7 µM
NC(=O)c1ccsc1NC(=O)c1cc(-c2ccccc2)nn1-c1ccccc1 | 3.68 µM | IC50 (PBLUC_HILL_SLOPE 12.3, PBLUC_R_SQUARED 0.697, read-out: LUCIFERASE INFECTION ASSAY - IC50): 3.08 µM
O=C(NC1CC1)c1ccc(-c2cnc3cnc(-c4cnn(Cc5ccccc5)c4)cn23)cc1 | > 7.59 µM | IC50 (PBLUC_HILL_SLOPE 12.1, PBLUC_R_SQUARED 0.417, read-out: LUCIFERASE INFECTION ASSAY - IC50): 6.99 µM
Cc1[nH]c2ccccc2c1CC(=O)N1CCc2c(c(C(=O)NCc3cccnc3)nn2CC(C)C)C1 | 6.57 µM | IC50 (PBLUC_HILL_SLOPE 12.1, PBLUC_R_SQUARED 0.505, read-out: LUCIFERASE INFECTION ASSAY - IC50): 5.48 µM
